# Assays:
# [1] = test system: MDAMB453; test: GRmax, 72 h; higher = less effect;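 note: breast cell lines in 384-well plates, nine doses across a 10^4 range, Dye Drop imaging of viable cells vs DMSO and time-zero plates, GR 0 means no net growth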
# [2] = test system: MDAMB330; test: GRmax, 72 h; higher = less effect;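 note: breast cell lines in 384-well plates, nine doses across a 10^4 range, Dye Drop imaging of viable cells vs DMSO and time-zero plates, GR 0 means no net growth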
# [3] = test system: PDX1258; test: GRmax, 72 h; higher = less effect;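 note: breast cell lines in 384-well plates, nine doses across a 10^4 range, Dye Drop imaging of viable cells vs DMSO and time-zero plates, GR 0 means no net growth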
# [4] = test system: HCC1569; test: GRmax, 72 h; higher = less effect;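 note: breast cell lines in 384-well plates, nine doses across a 10^4 range, Dye Drop imaging of viable cells vs DMSO and time-zero plates, GR 0 means no net growth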
# [5] = test system: HS578T; test: GRmax, 72 h; higher = less effect
# [6] = test system: SKBR3; test: GRmax, 72 h; higher = less effect
# [7] = test system: HCC202; test: GRmax, 72 h; higher = less effect
# [8] = test system: HCC1143; test: GRmax, 72 h; higher = less effect
# [9] = test system: CAL851; test: area over the GR curve, 72 h; higher = more effect;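 note: Dye Drop or Deep Dye Drop imaging of viable cells in 384-well plates (Hoechst nuclei, LIVE/DEAD dye), nine half-log doses, GR normalized to DMSO controls and time-zero plates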
# [10] = test system: HTERT_HME1; test: area over the GR curve, 72 h; higher = more effect;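 note: Dye Drop or Deep Dye Drop imaging of viable cells in 384-well plates (Hoechst nuclei, LIVE/DEAD dye), nine half-log doses, GR normalized to DMSO controls and time-zero plates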
# [11] = test system: HCC1954; test: area over the GR curve, 72 h; higher = more effect;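 note: Dye Drop or Deep Dye Drop imaging of viable cells in 384-well plates (Hoechst nuclei, LIVE/DEAD dye), nine half-log doses, GR normalized to DMSO controls and time-zero plates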
Compound,"GRmax, 72 h [1]","GRmax, 72 h [2]","GRmax, 72 h [3]","GRmax, 72 h [4]","GRmax, 72 h [5]","GRmax, 72 h [6]","GRmax, 72 h [7]","GRmax, 72 h [8]",area over the GR curve [9],area over the GR curve [10],area over the GR curve [11]
COc1cc2nccc(Oc3ccc(NC(=O)C4(C(=O)Nc5ccc(F)cc5)CC4)cc3)c2cc1OC [Cabozantinib] (max 10 µM),0.465 GR,0.743 GR,0.28 GR,0.723 GR,0.215 GR,0.442 GR,0.731 GR,0.512 GR,0.123 GR,0.0866 GR,-0.0867 GR
NC(=O)Nc1cc(-c2cccc(F)c2)sc1C(=O)N[C@H]1CCCNC1 [AZD7762] (max 10 µM),-0.216 GR,-0.607 GR,-0.453 GR,-0.411 GR,-0.598 GR,-0.451 GR,-0.277 GR,-0.369 GR,0.648 GR,0.435 GR,0.515 GR
CN(C)C(=O)c1cc2cnc(Nc3ccc(N4CCNCC4)cn3)nc2n1C1CCCC1 [LEE011/Ribociclib] (max 10 µM),0.189 GR,0.157 GR,1.08 GR,0.897 GR,0.376 GR,0.476 GR,0.778 GR,0.298 GR,0.0857 GR,0.365 GR,0.309 GR
COc1cccc2c1C(=O)c1c(O)c3c(c(O)c1C2=O)C[C@@](O)(C(=O)CO)C[C@@H]3O[C@H]1C[C@H](N)[C@H](O)[C@H](C)O1 [Doxorubicin] (max 3.162 µM),-0.348 GR,-0.205 GR,-0.493 GR,-0.132 GR,-0.347 GR,-0.616 GR,0.245 GR,-0.251 GR,0.848 GR,0.836 GR,0.73 GR
CCc1cnn2c(NCc3ccc[n+]([O-])c3)cc(N3CCCC[C@H]3CCO)nc12 (max 1 µM),-0.257 GR,-0.504 GR,-0.617 GR,-0.245 GR,-0.239 GR,-0.621 GR,0.0907 GR,-0.253 GR,0.686 GR,0.552 GR,0.629 GR
CN(C)C/C=C/C(=O)Nc1ccc(C(=O)N2CCC[C@@H](Nc3ncc(Cl)c(-c4c[nH]c5ccccc45)n3)C2)cc1 [THZ531] (max 1 µM),-0.294 GR,-0.968 GR,-0.575 GR,-0.155 GR,-0.246 GR,-0.619 GR,0.0684 GR,-0.23 GR,0.36 GR,0.182 GR,0.143 GR
CN(C)C/C=C/C(=O)Nc1ccc(O[C@@H]2CCC[C@@H](Nc3ncc(Cl)c(-c4c[nH]c5ccccc45)n3)C2)cc1 [BSJ-01-175] (max 10 µM),-0.723 GR,-0.971 GR,-0.914 GR,-0.762 GR,-0.694 GR,-0.769 GR,-0.201 GR,-0.449 GR,0.822 GR,0.955 GR,0.66 GR
C=CCn1c(=O)c2cnc(Nc3ccc(N4CCN(C)CC4)cc3)nc2n1-c1cccc(C(C)(C)O)n1 [AZD1775] (max 10 µM),-0.249 GR,-0.234 GR,-0.46 GR,-0.167 GR,-0.394 GR,-0.561 GR,-0.148 GR,-0.458 GR,0.491 GR,0.441 GR,0.295 GR
